{"source": "patent US20130244963A1", "about": "(Portola Pharmaceuticals, Inc., priority 2010, published 2013)", "key": {"DHL4": {"tested_on": "DHL4", "assay": "Viability of DLBCL cell line DHL4 by luminescent ATP detection (Cell Titer Glo)", "type": "cell-based", "settings": "single agents; three days; ATP luminescence", "method": "The final concentration of solvent (DMSO) during experimental time course was 1%. The robotic system Biomek 2 was used for all pipetting steps. After three days at 37 degrees in a tissue culture incubator, viability of cells was determined by lysis and luminescent ATP detection. ATP detection was carried out by addition of 20 μL Cell Titer Glo (Promega) following the protocol provided by manufacturer.\nThe concentrations of the inhibitors required to obtain 50, 75 or 90 percent inhibition are plotted in an isobologram (Tallarida R J. Dose response relations in pharmacology, Chapman and Hall/CRC, 2000)."}, "pERK [1]": {"tested_on": "pERK", "assay": "B cell activity in human whole blood: BCR-induced pERK formation", "type": "cell-based", "settings": "healthy normal volunteers, ex vivo"}, "CD69 [2]": {"tested_on": "CD69", "assay": "B cell activity in human whole blood: BCR-induced CD69 expression", "type": "cell-based", "settings": "healthy normal volunteers, ex vivo"}, "SU-DHL4 [3]": {"tested_on": "SU-DHL4", "assay": "Induction of apoptosis, caspase 3 cleavage", "type": "cell-based"}, "SU-DHL6 [4]": {"tested_on": "SU-DHL6", "assay": "Induction of apoptosis, caspase 3 cleavage", "type": "cell-based"}, "pAKT": {"tested_on": "pAKT", "assay": "BCR-induced pAKT formation in NHL cell lines", "type": "cell-based", "settings": "Homo sapiens, Ramos"}, "pERK [5]": {"tested_on": "pERK", "assay": "BCR-induced pERK formation in NHL cell lines", "type": "cell-based", "settings": "Homo sapiens"}, "CD69 [6]": {"tested_on": "CD69", "assay": "Whole blood B cell activation (CD69) in RA patients with or without MTX", "type": "cell-based, human", "settings": "blood from RA patients on stable doses of MTX (n=18) versus without MTX (n=14); anti IgD activation", "from_the_text": "In vitro study of whole blood B cell activation (CD69) in stable RA patients treated with MTX (n=18) or without MTX (n=14)."}, "[7]": {"assay": "Lymphocyte counts in rats with bovine collagen antibody mediated inflammation", "type": "in vivo, rat", "settings": "administered as a single agent", "from_the_text": "In 7 control rats treated with vehicle, lymphocyte count was […]. In 4 rats treated with dexamethasone, count=2.32×10^3/μL, p=0.42. However 3 out of 4 of rats did suffer from lymphopenia."}, "Syk (Y525/526)": {"tested_on": "Syk (Y525/526)", "assay": "BCR-induced Syk (Y525/526) autophosphorylation in NHL cell lines", "type": "cell-based", "settings": "Homo sapiens, SU-DHL-4; SU-DHL4; read-out: BCR-induced Syk (Y525/526) auto-phosphorylation (IC50)"}, "pBLNK": {"tested_on": "pBLNK", "assay": "BCR-induced pBLNK formation in NHL cell lines", "type": "cell-based", "settings": "Homo sapiens"}, "SU-DHL6 [8]": {"tested_on": "SU-DHL6", "assay": "Induction of apoptosis, Annexin V binding", "type": "cell-based"}, "SU-DHL4 [9]": {"tested_on": "SU-DHL4", "assay": "Induction of apoptosis, Annexin V binding", "type": "cell-based"}, "[10]": {"tested_on": "collagen induced arthritis (CIA)", "assay": "Rat Collagen Induced Arthritis (CIA) Model, hind paw inflammation score", "type": "in vivo", "from_the_text": "Holmdahl R, Lorentzen J C, Lu S, Olofsson P, Wester L, Holmberg J, et al. Arthritis in rats with non-immunogenic adjuvants as models for rheumatoid arthritis. […] On day 10, the rats were boosted with a second subcutaneous injection. Test article administration was initiated when at least one hind paw was inflamed (clinical arthritis score=1) and enrollment into a treatment group was designated as day 1 of the study for each individual animal (n=4 to 8/dose group). Progression of disease was evidenced by increased edema and erythema of one or both ankle joints, followed by the involvement of the metatarsal and interphalangeal joints. […] Hind paws were scored daily (inflammation score) for progression of disease and evaluated for histopathological changes in cartilage structure, cellularity, matrix glycoaminoglycans, and synovial inflammation at the end of the 16-day treatment course. […] In Tables below, mean scores are calculated for all animals in dosed group over the entire experimental time course."}, "leukocytes": {"tested_on": "leukocytes", "assay": "Leukocyte rolling and adhesion in whole blood on collagen type 1 + JAM-C surface", "type": "cell-based, human", "settings": "for percentage increase in fluorescence intensity over baseline: Compound 1 3 uM", "from_the_text": "Junction adhesion molecule C (JAM-C) mediates recruitment and adhesion of leukocytes to synovium of patients with rheumatoid arthritis (Rabquer B J, Arthritis Rheum, 2008; 58(10):3020-9). This is an important step in the etiology of rheumatoid arthritis and disruption of this activity may have therapeutic benefit in the treatment of patients with inflammatory diseases such as RA. In order to use an in-vitro experimental system to mimic migration and adhesion of leukocytes, we have used a collagen and JAM-C coated surface for the assay.\nLeukocyte rolling and adhesion in human whole blood (from healthy normal volunteers or patients with rheumatoid arthritis) was monitored using real time fluorescence microscopy. […] Prior to experimentation, leukocytes were labeled in whole blood with Rhodamine 6G to permit visualization by fluorescence microscopy. The increase in fluorescence intensity is proportional to the amount of fluorescently labeled leukocytes recruited under the area of observation. […] For quantitation of inhibitory activity (TABLE), data are presented as percentage increase in fluorescence intensity over baseline 180 and 360 sec post initiation of the blood perfusion (see FIG. 4)."}, "[11]": {"settings": "Compound 1 5 mg/kg, first experimental design (5/15/50 mg/kg)"}, "[12]": {"settings": "Compound 1 5 mg/kg, second experimental design (5/10/15 mg/kg)"}, "[13]": {"settings": "Compound 1 10 mg/kg, second experimental design (5/10/15 mg/kg)"}, "[14]": {"settings": "Compound 1 15 mg/kg, first experimental design (5/15/50 mg/kg)"}, "[15]": {"settings": "Compound 1 15 mg/kg, second experimental design (5/10/15 mg/kg)"}, "[16]": {"settings": "Compound 1 50 mg/kg, first experimental design (5/15/50 mg/kg)"}}, "data": [{"smiles": "NC(=O)c1cnc(N[C@@H]2CCCC[C@@H]2N)nc1Nc1cccc(-n2nccn2)c1", "note": "[Compound 1, 4-(3-(2H-1,2,3-triazol-2-yl)phenylamino)-2-((1R,2S)-2-aminocyclohexylamino)pyrimidine-5-carboxamide]", "values": [{"measurement": "inhibitory activity on viability of DHL4 cells (in words)", "setting": "DHL4", "value": "dose responsive inhibitory activity"}, {"measurement": "IC50", "setting": "pERK [1]", "value": "250 to 500", "unit": "nM"}, {"measurement": "IC50", "setting": "CD69 [2]", "value": "250 to 500", "unit": "nM"}, {"measurement": "Induction of apoptosis— caspase 3 cleavage (% +ve cells)", "setting": "SU-DHL4 [3]", "value": 26, "unit": "% +ve cells"}, {"measurement": "Induction of apoptosis— caspase 3 cleavage (% +ve cells)", "setting": "SU-DHL6 [4]", "value": 47, "unit": "% +ve cells"}, {"measurement": "IC50", "setting": "pAKT", "value": "0.05 to 0.125", "unit": "µM"}, {"measurement": "IC50", "setting": "pERK [5]; Ramos", "value": "0.05 to 0.125", "unit": "µM"}, {"measurement": "IC50", "setting": "pERK [5]; SU-DHL-6, SU-DHL6", "value": 0.1, "unit": "µM"}, {"measurement": "Syk inhibitory potency in whole blood B cell activation (CD69)", "setting": "CD69 [6]", "value": "higher (reduced IC50)"}, {"measurement": "effect on lymphocyte counts", "setting": "[7]", "value": "does not produce a reduction in lymphocyte counts"}, {"measurement": "IC50", "setting": "Syk (Y525/526)", "value": "[…]"}, {"measurement": "IC50", "setting": "pBLNK; SU-DHL-4, SU-DHL4", "value": 160, "unit": "nM"}, {"measurement": "IC50", "setting": "pBLNK; SU-DHL-6, SU-DHL6", "value": "10 to 20", "unit": "nM"}, {"measurement": "Induction of apoptosis— Annexin V binding (% +ve cells)", "setting": "SU-DHL6 [8]", "value": 20.3, "unit": "% +ve cells"}, {"measurement": "Induction of apoptosis— Annexin V binding (% +ve cells)", "setting": "SU-DHL4 [9]", "value": 15.5, "unit": "% +ve cells"}, {"measurement": "Maximum Inflammation Score measurement", "setting": "[10]; [11]", "value": 5.625}, {"measurement": "Mean Inflammation Score", "setting": "[10]; [11]", "value": 4.868}, {"measurement": "Minimum Inflammation Score measurement", "setting": "[10]; [11]", "value": 1.5}, {"measurement": "Maximum Inflammation Score measurement", "setting": "[10]; [12]", "value": 4.75}, {"measurement": "Mean Inflammation Score", "setting": "[10]; [12]", "value": 3.57}, {"measurement": "Minimum Inflammation Score measurement", "setting": "[10]; [12]", "value": 1.38}, {"measurement": "Maximum Inflammation Score measurement", "setting": "[10]; [13]", "value": 3.00}, {"measurement": "Mean Inflammation Score", "setting": "[10]; [13]", "value": 2.15}, {"measurement": "Minimum Inflammation Score measurement", "setting": "[10]; [13]", "value": 1.13}, {"measurement": "Maximum Inflammation Score measurement", "setting": "[10]; [14]", "value": 1.125}, {"measurement": "Mean Inflammation Score", "setting": "[10]; [14]", "value": 0.949}, {"measurement": "Minimum Inflammation Score measurement", "setting": "[10]; [14]", "value": 0.75}, {"measurement": "Maximum Inflammation Score measurement", "setting": "[10]; [15]", "value": 1.38}, {"measurement": "Mean Inflammation Score", "setting": "[10]; [15]", "value": 1.016}, {"measurement": "Minimum Inflammation Score measurement", "setting": "[10]; [15]", "value": 0.63}, {"measurement": "Maximum Inflammation Score measurement", "setting": "[10]; [16]", "value": 1.0}, {"measurement": "Mean Inflammation Score", "setting": "[10]; [16]", "value": 0.169}, {"measurement": "Minimum Inflammation Score measurement", "setting": "[10]; [16]", "value": 0}, {"measurement": "percentage increase in fluorescence intensity over baseline", "setting": "leukocytes; RA patient #8 on Adalimumab, 180 sec, vehicle 51%", "value": 7, "unit": "%"}, {"measurement": "percentage increase in fluorescence intensity over baseline", "setting": "leukocytes; RA patient #8 on Adalimumab, 360 sec, vehicle 94%", "value": 63, "unit": "%"}, {"measurement": "percentage increase in fluorescence intensity over baseline", "setting": "leukocytes; RA patient #10 on Methotrexate, 180 sec, vehicle 44%", "value": 29, "unit": "%"}, {"measurement": "percentage increase in fluorescence intensity over baseline", "setting": "leukocytes; RA patient #10 on Methotrexate, 360 sec, vehicle 107%", "value": 86, "unit": "%"}, {"measurement": "percentage increase in fluorescence intensity over baseline", "setting": "leukocytes; RA patient #11 on Methotrexate + prednisone, 180 sec, vehicle 165%", "value": 69, "unit": "%"}, {"measurement": "percentage increase in fluorescence intensity over baseline", "setting": "leukocytes; RA patient #11 on Methotrexate + prednisone, 360 sec, vehicle 178%", "value": 183, "unit": "%"}, {"measurement": "percentage increase in fluorescence intensity over baseline", "setting": "leukocytes; RA patient #12 on Etanercept, 180 sec, vehicle 61%", "value": 17, "unit": "%"}, {"measurement": "percentage increase in fluorescence intensity over baseline", "setting": "leukocytes; RA patient #12 on Etanercept, 360 sec, vehicle 131%", "value": 53, "unit": "%"}, {"measurement": "number of adherent leukocytes (in words)", "setting": "leukocytes; whole blood from RA patients (mild, moderate, severe) on standard of care, in vitro addition of 3 uM", "value": "reduces the number of adherent cells"}, {"measurement": "number of leukocytes adhering to collagen and JAM-C coated surface (in words)", "setting": "leukocytes; whole blood from healthy donors without inflammatory disease", "value": "reduces the number of leukocytes adhering"}]}]}
